Among the data in patent US9221832B2, “Heterocyclic amide derivatives as P2X7 receptor antagonists” (ACTELION PHARMACEUTICALS LTD., priority 2011, dated 2015) are IC50 values, retold here.

The target of the test is human recombinant P2X7 receptor (Homo sapiens (Human), UniProt Q99572). Put plainly: YO-PRO assay: P2X7 receptor antagonistic activity. In kind it is cell-based. Conditions: HEK cells expressing human P2X7. Here is the method: The P2X7 receptor antagonistic activity of the compounds of formula (I) is determined in accordance with the following experimental method.
Sequence of human recombinant P2X7 receptor (Q99572 whole entry): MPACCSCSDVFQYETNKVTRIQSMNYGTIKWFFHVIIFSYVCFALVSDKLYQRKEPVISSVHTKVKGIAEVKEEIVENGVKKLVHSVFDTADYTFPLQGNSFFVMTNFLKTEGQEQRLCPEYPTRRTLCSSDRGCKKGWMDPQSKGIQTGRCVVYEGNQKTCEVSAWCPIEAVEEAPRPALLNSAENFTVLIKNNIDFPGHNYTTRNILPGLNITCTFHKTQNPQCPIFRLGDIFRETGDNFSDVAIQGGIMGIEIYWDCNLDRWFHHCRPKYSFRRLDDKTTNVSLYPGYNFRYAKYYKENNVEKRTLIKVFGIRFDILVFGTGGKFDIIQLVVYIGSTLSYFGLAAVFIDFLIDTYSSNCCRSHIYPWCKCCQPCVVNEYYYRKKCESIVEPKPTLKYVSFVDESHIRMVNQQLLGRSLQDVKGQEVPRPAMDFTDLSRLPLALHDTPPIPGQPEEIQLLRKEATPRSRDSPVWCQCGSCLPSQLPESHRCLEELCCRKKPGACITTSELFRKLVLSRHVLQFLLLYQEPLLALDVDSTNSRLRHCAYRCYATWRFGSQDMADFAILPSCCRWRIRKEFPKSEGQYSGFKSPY
Cell Line Generation and YO-PRO Assay
Cell line generation was performed in general according to established molecular cloning protocols. Specifically, RNA was extracted from human whole blood using the Qiagen RNeasy kit (Qiagen, CH) according to the manufacturer's instructions. Subsequently cDNA was made (Superscript II, Invitrogen AG, CH) and the human P2X7 gene (genbank ref. BC011913) was amplified with the following primers: […] and […]. The amplified sequence was subsequently ligated into a pcDNA3.1 (+) NotI, NheI digested plasmid. […] Following a 24 h exposure to DNA, cells were trypsinized and re-seeded at low density in the presence of 250 μg Geneticin. Geneticin resistant cells were then selected during two consecutive rounds of cloning by serial limiting dilution with visual inspection. Individual clones were screened for P2X7 expression by applying ATP and recording the resultant uptake of YO-PRO1. Specific cell clones were chosen based on RNA and protein expression. HEK cells stably expressing P2X7 were used to screen drugs using the YO-PRO1 assay. Cells were grown to confluency in adherent culture at 37° C. in a humidified 5% CO2 incubator (split 1/5 every 3-4 days with DMEM, 10% FCS, 1% Penicillin/Streptomycin, 250 μg/ml Geneticin). Adherent cells were detached by incubation with Trypsine (1 ml per 165 cm^2 dish) for 2 minutes, then washed off with 10 ml PBS (without Mg^2+ and Ca^2+), and resuspended in DMEM, 10% FCS, 1% Penicillin/Streptomycin, no Geneticin. […] During this time period, four time points were taken. Each time point comprised the average of several measurements made within a few seconds. […] The FLIPR tetra was equipped with Molecular Devices Screen Works system control software to define and run experimental protocols. […] For IC50 measurements the maximum intensity is plotted against the concentration of compound to determine IC50 values.
Turning to `O=C(Cc1cc(F)c(Cl)cc1Cl)NC1CCOc2ncccc21` (racemic) [Example 57, rac-2-(2,4-Dichloro-5-fluoro-phenyl)-N-(3,4-dihydro-2H-pyrano[2,3-b]pyridin-4-yl)-acetamide], the IC50 (commonly the concentration that inhibits the measured activity by half) was 1470 nM. Consider `O=C(NC1CCOc2ncccc21)C1(c2ccc(Cl)cc2Cl)CC1` (racemic) [Example 58, rac-1-(2,4-Dichloro-phenyl)-cyclopropanecarboxylic acid (3,4-dihydro-2H-pyrano[2,3-b]pyridin-4-yl)-amide], for which the IC50 amounted to 294 nM. As for `O=C(NC1CCOc2ncccc21)C1(c2ccc(F)cc2Cl)CCCC1` (racemic) [Example 59, rac-1-(2-Chloro-4-fluoro-phenyl)-cyclopentanecarboxylic acid (3,4-dihydro-2H-pyrano[2,3-b]pyridin-4-yl)-amide], the IC50 came to 390 nM. For the compound `O=C(Cc1cccnc1Cl)NC1CCOc2ncccc21` (racemic) [Example 60, rac-2-(2-Chloro-pyridin-3-yl)-N-(3,4-dihydro-2H-pyrano[2,3-b]pyridin-4-yl)-acetamide], the IC50 was 780 nM. With `Cc1ccc(OCC(=O)NC2CCOc3ncccc32)c(C)n1` (racemic) [Example 61, rac-N-(3,4-Dihydro-2H-pyrano[2,3-b]pyridin-4-yl)-2-(2,6-dimethyl-pyridin-3-yloxy)-acetamide], the IC50 was 814 nM.

In the case of `Cc1cc(CC(=O)NC2CCOc3ncccc32)on1` (racemic) [Example 62, rac-N-(3,4-Dihydro-2H-pyrano[2,3-b]pyridin-4-yl)-2-(3-methyl-isoxazol-5-yl)-acetamide], the IC50 came to 2080 nM.

On to `Cc1ccnn1CC(=O)NC1CCOc2ncccc21` (racemic) [Example 63, rac-N-(3,4-Dihydro-2H-pyrano[2,3-b]pyridin-4-yl)-2-(5-methyl-pyrazol-1-yl)-acetamide], for which the IC50 is greater than 5720 nM. Consider `O=C(CCc1ccc(Cl)cc1Cl)NC1CCOc2ncccc21` (racemic) [Example 65, rac-3-(2,4-Dichloro-phenyl)-N-(3,4-dihydro-2H-pyrano[2,3-b]pyridin-4-yl)-propionamide], for which the IC50 turned out to be 3010 nM. With `O=C(Cc1c(F)ccc(Cl)c1Cl)NC1COc2ncccc21` (racemic) [Example 67, rac-2-(2,3-Dichloro-6-fluoro-phenyl)-N-(2,3-dihydro-furo[2,3-b]pyridin-3-yl)-acetamide], the IC50 turned out to be 210 nM.

Regarding `O=C(Cc1c(F)cccc1C(F)(F)F)NC1COc2ncccc21` (racemic) [Example 68, rac-N-(2,3-Dihydro-furo[2,3-b]pyridin-3-yl)-2-(2-fluoro-6-trifluoromethyl-phenyl)-acetamide], the IC50 stood at 1830 nM.

For `O=C(Cc1c(F)cc(Cl)cc1Cl)NC1CCOc2ncccc21` (racemic) [Example 70, rac-2-(2,4-Dichloro-6-fluoro-phenyl)-N-(3,4-dihydro-2H-pyrano[2,3-b]pyridin-4-yl)-acetamide], the IC50 is 386 nM. In the case of `O=C(Cc1c(C(F)(F)F)ccc(Cl)c1Cl)NC1COc2ncccc21` (racemic) [Example 71, rac-2-(2,3-Dichloro-6-trifluoromethyl-phenyl)-N-(2,3-dihydro-furo[2,3-b]pyridin-3-yl)-acetamide], the 50% inhibitory concentration (IC50) was 3230 nM. `O=C(Cc1c(Cl)ccc(C(F)(F)F)c1Cl)NC1COc2ncccc21` (racemic) [Example 72, rac-2-(2,6-Dichloro-3-trifluoromethyl-phenyl)-N-(2,3-dihydro-furo[2,3-b]pyridin-3-yl)-acetamide]: the IC50 amounted to 1020 nM. As for `N#Cc1cccc(CC(=O)NC2COc3ncccc32)c1Cl` (racemic) [Example 75, rac-2-(2-Chloro-3-cyano-phenyl)-N-(2,3-dihydro-furo[2,3-b]pyridin-3-yl)-acetamide], the IC50 was found to be 22 nM. The value for `O=C(Cc1c(F)cc(Cl)cc1Cl)NC1COc2ncccc21` (racemic) [Example 76, rac-2-(2,4-Dichloro-6-fluoro-phenyl)-N-(2,3-dihydro-furo[2,3-b]pyridin-3-yl)-acetamide] was 90 nM; that for `O=C(Cc1c(Cl)ccc(Cl)c1F)NC1COc2ncccc21` (racemic) [Example 77, rac-2-(3,6-Dichloro-2-fluoro-phenyl)-N-(2,3-dihydro-furo[2,3-b]pyridin-3-yl)-acetamide] was 2480 nM; that for `O=C(Cc1c(F)ccc(F)c1Cl)NC1COc2ncccc21` (racemic) [Example 78, rac-2-(2-Chloro-3,6-difluoro-phenyl)-N-(2,3-dihydro-furo[2,3-b]pyridin-3-yl)-acetamide] was 665 nM. Consider `NC(=O)c1cccc(CC(=O)NC2COc3ncccc32)c1Cl` (racemic) [Example 80, rac-2-Chloro-3-[(2,3-dihydro-furo[2,3-b]pyridin-3-ylcarbamoyl)-methyl]-benzamide], for which the IC50 is 1240 nM. Turning to `O=C(CCCc1ccc(F)cc1)NC1COc2ncccc21` (racemic) [Example 82, rac-N-(2,3-Dihydro-furo[2,3-b]pyridin-3-yl)-4-(4-fluoro-phenyl)-butyramide], the IC50 was 2030 nM. Then `O=C(Cc1cccc(C(F)(F)F)c1Cl)NC1COc2cnccc21` (racemic) [Example 87, rac-2-(2-Chloro-3-trifluoromethyl-phenyl)-N-(2,3-dihydro-furo[2,3-c]pyridin-3-yl)-acetamide], with 4.6 nM. Consider `O=C(Cc1ccc(C(F)(F)F)cc1Cl)NC1COc2ncccc21` (racemic) [Example 88, rac-2-(2-Chloro-4-trifluoromethyl-phenyl)-N-(2,3-dihydro-furo[2,3-b]pyridin-3-yl)-acetamide], for which the IC50 worked out at 72 nM.

For the compound `Cc1cc(Cl)cc(Cl)c1CC(=O)NC1COc2cnccc21` (racemic) [Example 89, rac-2-(2,4-Dichloro-6-methyl-phenyl)-N-(2,3-dihydro-furo[2,3-c]pyridin-3-yl)-acetamide], the IC50 came to 3.2 nM. Consider `O=C(Cc1cccc(C(F)(F)F)c1F)NC1COc2ncccc21` (racemic) [Example 90, rac-N-(2,3-Dihydro-furo[2,3-b]pyridin-3-yl)-2-(2-fluoro-3-trifluoromethyl-phenyl)-acetamide], for which the IC50 worked out at 92 nM. Consider `N#Cc1ccc(CC(=O)NC2COc3ncccc32)c(Cl)c1` (racemic) [Example 96, rac-2-(2-Chloro-4-cyano-phenyl)-N-(2,3-dihydro-furo[2,3-b]pyridin-3-yl)-acetamide], for which the IC50 was 123 nM. In the case of `O=C(Cc1cccc(Cl)c1C(F)(F)F)NC1COc2ncccc21` (racemic) [Example 97, rac-2-(3-Chloro-2-trifluoromethyl-phenyl)-N-(2,3-dihydro-furo[2,3-b]pyridin-3-yl)-acetamide], the IC50 worked out at 15 nM. In the case of `Cc1nccc2c1OCC2NC(=O)Cc1ccc(Cl)cc1Cl` (racemic) [Example 100, rac-2-(2,4-Dichloro-phenyl)-N-(7-methyl-2,3-dihydro-furo[2,3-c]pyridin-3-yl)-acetamide], the IC50 was determined as 52 nM. As to `O=C(Cc1c(Cl)cc(Cl)cc1CO)NC1COc2ncccc21` (racemic) [Example 103, rac-2-(2,4-Dichloro-6-hydroxymethyl-phenyl)-N-(2,3-dihydro-furo[2,3-b]pyridin-3-yl)-acetamide], the IC50 was 16 nM. Regarding `O=C(Cc1ccc(Cl)cc1Cl)NC1COc2c1ccnc2C1CC1` (racemic) [Example 104, rac-N-(7-Cyclopropyl-2,3-dihydro-furo[2,3-c]pyridin-3-yl)-2-(2,4-dichloro-phenyl)-acetamide], the IC50 came to 71 nM.
